In patent US20240059655A1, “HETEROCYCLIC G-PROTEIN-COUPLED RECEPTOR 52 (GPR52) AGONISTS” (Board of Regents, The University of Texas System, priority 2020, published 2024):
Like-named read-outs stand apart in the source and are kept apart here.

Tests used:
human GPR52 [1] = target: T1, human GPR52 (Homo sapiens (Human), UniProt Q9Y2T5); experiment: Glosensor cAMP assay in HEK293 cells transiently expressing human GPR52; assay type: cell-based
Target sequence in this assay (Q9Y2T5 whole entry): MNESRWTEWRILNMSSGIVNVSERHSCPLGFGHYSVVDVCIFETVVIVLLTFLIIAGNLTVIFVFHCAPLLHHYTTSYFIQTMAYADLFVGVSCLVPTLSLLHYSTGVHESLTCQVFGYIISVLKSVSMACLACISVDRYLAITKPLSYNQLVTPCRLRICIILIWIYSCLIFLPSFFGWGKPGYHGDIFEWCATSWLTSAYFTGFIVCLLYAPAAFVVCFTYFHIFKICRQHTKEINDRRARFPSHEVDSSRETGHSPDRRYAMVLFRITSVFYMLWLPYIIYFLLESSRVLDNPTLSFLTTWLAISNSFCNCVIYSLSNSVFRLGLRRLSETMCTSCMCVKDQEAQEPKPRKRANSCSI

GPR52 = details: relative to compound 4a
Procedure: Bias factor calculations. Mean efficacy (Emax) and potency (EC50) were taken from at least three independent experiments for all compounds tested in both the cAMP and β-arrestin recruitment assays. Formulas for bias factor calculations were adapted from Kenakin^37. […] A ΔΔ log(Emax/EC50) value for each compound was calculated by subtraction of Δ log(Emax/EC50)β-arrestin from Δ log(Emax/EC50)cAmP. The inverse log of this ΔΔ log(Emax/EC50) value is the G protein bias factor. Conversely, the β-arrestin bias factor is calculated from the inverse log of ΔΔ log(Emax/EC50) when Δ log(Emax/EC50)cAmP is subtracted from Δ log(Emax/EC50)β-arrestin.

human GPR52 [2] = target: T1, human GPR52; experiment: TANGO β-arrestin recruitment assay in HTLA cells expressing GPR52 TANGO construct; details: read-out: β-Arrestin Recruitment Emax (%)
Target sequence in this assay (Q9Y2T5 whole entry, looked up, change not shown): as the sequence (Q9Y2T5 whole entry) above

[3] = HEK293, cAMP assay, relative to compound 4 as 100% and 0.5% DMSO as 0%, mean ± SEM, "—" not detected, read-out: Emax (%)

Compound | Emax (human GPR52 [1]; [3]) [%] | Emax (human GPR52 [1]; HEK293) [%] | further results
COC(=O)C(NC(=O)c1cccc(Nc2cc(Cc3cccc(C(F)(F)F)c3)ccn2)c1)[C@@H](C)O (stereo in doubt) [PW0673, Methyl (3-((4-(3-(trifluoromethyl)benzyl)pyridin-2-yl)amino)benzoyl)-D-allothreoninate] | 164 ± 12 |  | 
O=C(N[C@@H](CO)C(O)c1ccccc1)c1cccc(Nc2cc(Cc3cccc(C(F)(F)F)c3)ccn2)c1 (stereo in doubt) [PW0675, N-((1S)-1,3-Dihydroxy-1-phenylpropan-2-yl)-3-((4-(3-(trifluoromethyl)benzyl)pyridin-2-yl)amino)benzamide] | 188 ± 11 |  | 
O=C(NCCO)c1cccc2c1CCN2c1ccnc(Cc2cc(F)cc(C(F)(F)F)c2)n1 [Compound 12a, 1-(2-(3-Fuoro-5-(trifluoromethyl)benzyl)pyrimidin-4-yl)-N-(2-hydroxyethyl)indoline-4-carboxamide] | 144 |  | 
O=C(NCCO)c1cccc2c1CCN2c1nccc(Cc2cc(F)cc(C(F)(F)F)c2)n1 [Compound 12d, 1-(4-(3-Fluoro-5-(trifluoromethyl)benzyl)pyrimidin-2-yl)-N-(2-hydroxyethyl)indoline-4-carboxamide] | 138 ± 8 |  | 
Cc1c(Cc2cc(F)cc(C(F)(F)F)c2)cnnc1N1CCc2c(C(=O)NCCO)cccc21 [Compound 12e, 1-(5-(3-Fluoro-5-(trifluoromethyl)benzyl)-4-methylpyridazin-3-yl)-N-(2-hydroxyethyl)indoline-4-carboxamide] |  | 119 ± 6 | decreased EC50 (loss of potency) on adding a 2-substituent to compound 12b (human GPR52 [1]): > 4 fold
O=C(NCCO)c1cccc2c1CCN2c1nncc(Cc2cc(F)cc(C(F)(F)F)c2)c1Cl [Compound 12f, 1-(4-Chloro-5-(3-fluoro-5-(trifluoromethyl)benzyl)pyridazin-3-yl)-N-(2-hydroxyethyl)indoline-4-carboxamide] |  | 97 ± 7 | decreased EC50 (loss of potency) on adding a 2-substituent to compound 12b (human GPR52 [1]; cAMP EC50): > 4 fold
O=C(c1cc(F)cc(C(F)(F)F)c1)c1cc(N2CCc3c(C(=O)NCCO)cccc32)ncn1 [Compound 25b, 1-(6-(3-Fluoro-5-(trifluoromethyl)benzoyl)pyrimidin-4-yl)-N-(2-hydroxyethyl)indoline-4-carboxamide] | 22 ± 3 |  | 
O=C(c1cccc(C(F)(F)F)c1)c1cc(N2CCc3c(C(=O)NCCO)cccc32)ncn1 [Compound 25c, N-(2-Hydroxyethyl)-1-(6-(3-(trifluoromethyl)benzoyl)pyrimidin-4-yl)indoline-4-carboxamide] | 22 ± 4 |  | 
O=C(NCCO)c1cccc2c1CCN2c1nccc(C(O)c2cc(F)cc(C(F)(F)F)c2)n1 (stereo not drawn) [Compound 25d] | 130 ± 9 |  | 
O=C(NCCO)c1cccc2c1CCN2c1cc(C(O)c2cc(F)cc(C(F)(F)F)c2)ncn1 (stereo not drawn) [Compound 25e] | 134 ± 28 |  | 
O=C(NCCO)c1cccc2c1CCN2c1nccc(C(F)c2cc(F)cc(C(F)(F)F)c2)n1 (stereo not drawn) [Compound 25g, 1-(4-(Fluoro(3-fluoro-5-(trifluoromethyl)phenyl)methyl)pyrimidin-2-yl)-N-(2-hydroxyethyl)indoline-4-carboxamide] | 144 ± 9 |  | 
O=C(NCCO)c1cccc2c1CCN2c1cc(C(F)c2cccc(C(F)(F)F)c2)ncn1 (stereo not drawn) [Compound 25i, 1-(6-(Fluoro(3-(trifluoromethyl)phenyl)methyl)pyrimidin-4-yl)-N-(2-hydroxyethyl)indoline-4-carboxamide] | 83 ± 5 |  | 
O=C(NCCO)c1cccc2c1CCN2c1cc(Nc2cccc(C(F)(F)F)c2)ncn1 [Compound 25j] | 81 ± 2 |  | 
O=C(NCCO)c1cccc2c1CCN2c1cc(Oc2cccc(C(F)(F)F)c2)ncn1 [Compound 25k, N-(2-Hydroxyethyl)-1-(6-(3-(trifluoromethyl)phenoxy)pyrimidin-4-yl)indoline-4-carboxamide] | 99 ± 4 |  | 
O=C(NCCO)c1cccc2c1CCN2c1cc(Sc2cccc(C(F)(F)F)c2)ncn1 [Compound 25l] | 123 ± 6 |  | 
O=C(c1cccc2c1CCN2c1cc(Cc2cc(F)cc(C(F)(F)F)c2)ncn1)N1CC(O)C1 [Compound 30e, (1-(6-(3-Fluoro-5-(trifluoromethyl)benzyl)pyrimidin-4-yl)indolin-4-yl)(3-hydroxyazetidin-1-yl)methanone] | 111 ± 10 |  | 
O=C(c1cccc2c1CCN2c1cc(Cc2cc(F)cc(C(F)(F)F)c2)ncn1)N(CCO)CCO [Compound 30g, 1-(6-(3-Fluoro-5-(trifluoromethyl)benzyl)pyrimidin-4-yl)-N,N-bis(2-hydroxyethyl)indoline-4-carboxamide] | 119 ± 15 |  | 
O=C(N[C@H]1CC[C@H](O)CC1)c1cccc(Nc2cc(Cc3cccc(C(F)(F)F)c3)ccn2)c1 [PW0674, N-((1r,4R)-4-Hydroxycyclohexyl)-3-((4-(3-(trifluoromethyl)benzyl)pyridin-2-yl)amino)benzamide] |  | 131 ± 13 | 
O=C(NC(CO)CO)c1cccc(Nc2cc(Cc3cccc(C(F)(F)F)c3)ccn2)c1 [PW0676, N-(1,3-Dihydroxypropan-2-yl)-3-((4-(3-(trifluoromethyl)benzyl)pyridin-2-yl)amino)benzamide] |  | 214 ± 19 | G Protein Bias Factor (GPR52): 66.3; β-Arrestin Bias Factor (GPR52): 0.015; Emax (human GPR52 [2]): 125 ± 12%
O=C(NCC(O)CO)c1cccc(Nc2cc(Cc3cccc(C(F)(F)F)c3)ccn2)c1 (stereo not drawn) [PW0677, N-(2,3-Dihydroxypropyl)-3-((4-(3-(trifluoromethyl)benzyl)pyridin-2-yl)amino)benzamide] |  | 268 ± 12 | G Protein Bias Factor (GPR52): 63.2; β-Arrestin Bias Factor (GPR52): 0.016; Emax (human GPR52 [2]): 127 ± 7%
O=C(c1cccc(Nc2cc(Cc3cccc(C(F)(F)F)c3)ccn2)c1)N1CCOCC1 [PW0823] |  | 93 ± 7 | 
O=C(NCC(F)F)c1cccc(Nc2cc(Cc3cccc(C(F)(F)F)c3)ccn2)c1 [PW0824] |  | 152 ± 7 | 
COCCNC(=O)c1cccc(Nc2cc(Cc3cccc(C(F)(F)F)c3)ccn2)c1 [PW0825, N-(2-Methoxyethyl)-3-((4-(3-(trifluoromethyl)benzyl)pyridin-2-yl)amino)benzamide] |  | 131 ± 15 | 
O=C(NCCCCO)c1cccc(Nc2cc(Cc3cccc(C(F)(F)F)c3)ccn2)c1 [PW0832, N-(4-Hydroxybutyl)-3-((4-(3-(trifluoromethyl)benzyl)pyridin-2-yl)amino)benzamide] |  | 129 ± 8 | 
Cc1c(Nc2cc(Cc3ccc(Cl)cc3F)ccn2)cccc1C(=O)NCCO [PW0868, 3-((4-(4-Chloro-2-fluorobenzyl)pyridin-2-yl)amino)-N-(2-hydroxyethyl)-2-methylbenzamide] |  | 131 ± 8 | 
